Target: T1, recombinant human NAE enzyme (Homo sapiens, UniProt Q8TBC4)
T1 construct: His (N); made in house; host or cells: Sf9 insect cells (baculovirus, Bac-to-Bac)
T1 sequence (Q8TBC4 1-463): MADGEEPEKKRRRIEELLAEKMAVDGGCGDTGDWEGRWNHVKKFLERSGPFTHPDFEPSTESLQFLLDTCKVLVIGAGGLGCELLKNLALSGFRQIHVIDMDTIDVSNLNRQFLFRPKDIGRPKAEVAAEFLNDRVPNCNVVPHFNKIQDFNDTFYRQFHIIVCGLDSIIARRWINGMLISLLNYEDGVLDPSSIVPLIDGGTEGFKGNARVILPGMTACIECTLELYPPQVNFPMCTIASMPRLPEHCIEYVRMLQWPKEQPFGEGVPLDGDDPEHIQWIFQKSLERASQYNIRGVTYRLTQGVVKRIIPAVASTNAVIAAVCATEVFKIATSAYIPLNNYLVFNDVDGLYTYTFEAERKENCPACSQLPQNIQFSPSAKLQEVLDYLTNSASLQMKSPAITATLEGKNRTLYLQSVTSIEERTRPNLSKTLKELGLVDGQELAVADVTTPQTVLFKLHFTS
T1 sequence (Q13564 1-534 partner): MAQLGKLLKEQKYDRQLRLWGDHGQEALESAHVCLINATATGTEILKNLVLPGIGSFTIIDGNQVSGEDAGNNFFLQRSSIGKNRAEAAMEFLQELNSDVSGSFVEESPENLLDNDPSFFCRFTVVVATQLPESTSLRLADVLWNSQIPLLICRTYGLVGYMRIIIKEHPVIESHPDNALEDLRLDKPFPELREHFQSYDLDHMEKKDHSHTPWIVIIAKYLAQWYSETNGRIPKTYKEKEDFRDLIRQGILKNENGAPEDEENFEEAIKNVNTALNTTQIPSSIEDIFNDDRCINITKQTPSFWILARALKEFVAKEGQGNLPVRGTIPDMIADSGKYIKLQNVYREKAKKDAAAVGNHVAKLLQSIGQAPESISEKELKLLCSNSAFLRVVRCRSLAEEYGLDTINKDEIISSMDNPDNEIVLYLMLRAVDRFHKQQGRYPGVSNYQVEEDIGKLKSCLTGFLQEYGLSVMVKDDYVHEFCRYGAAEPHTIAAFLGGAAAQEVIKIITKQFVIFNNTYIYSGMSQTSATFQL
Experiment: Nedd8-Activating Enzyme (NAE) HTRF Assay
Format: biochemical
Details: 20 μM ATP
Outline: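 Recombinant human NAE (NAEα/His-NAEβ from Sf9 cells) at 0.20 nM with 20 μM ATP, 0.01 μM Ubc12-GST and 0.075 μM Nedd8-Flag in HEPES pH 7.5, 105 min at 24° C. EDTA stop; Eu-anti-FLAG/APC-anti-GST HTRF read after 1 h.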

IC50 (bound given in nM) [nM] | IC50 (bound given in μM) [nM] | Structure (SMILES)
≤ 500 |  | NS(=O)(=O)OC[C@@H]1C[C@@H](Oc2cc(N[C@H]3CCCc4ccccc43)ncn2)C[C@@H]1O [Compound I-40, [(1S,2S,4R)-2-hydroxy-4-({6-[(1S)-1,2,3,4-tetrahydronaphthalen-1-ylamino]pyrimidin-4-yl}oxy)cyclopentyl]methyl sulfamate]
> 500 | < 10000 | NS(=O)(=O)OC[C@@H]1C[C@@H](Oc2ncnc3c2ncn3Cc2ccccc2)C[C@@H]1O [Compound I-80, {(1S,2S,4R)-4-[(9-benzyl-9H-purin-6-yl)oxy]-2-hydroxycyclopentyl}methyl sulfamate]
> 500 | < 10000 | CO[C@H]1Cc2ccccc2[C@H]1Oc1cc(O[C@@H]2C[C@@H](COS(N)(=O)=O)[C@@H](O)C2)ncn1 [Compound I-96, {(1S,2S,4R)-2-hydroxy-4-[(6-{[(1R,2S)-2-methoxy-2,3-dihydro-1H-inden-1-yl]oxy}-pyrimidin-4-yl)oxy]cyclopentyl}methyl sulfamate]
≤ 500 |  | CC1(C)C[C@H](Nc2cc(N[C@@H]3C[C@H](COS(N)(=O)=O)[C@@H](O)[C@H]3O)ncn2)c2ccccc21 [Compound I-21, {(1R,2R,3S,4R)-4-[(6-{[(1S)-3,3-dimethyl-2,3-dihydro-1H-inden-1-yl]amino}-pyrimidin-4-yl)amino]-2,3-dihydroxycyclopentyl}methyl sulfamate]
> 500 | < 10000 | CC1(C)C[C@H](Nc2cc(O[C@@H]3C[C@@H](COS(N)(=O)=O)[C@@H](O)C3)ccn2)c2ccc(Cl)cc21 [Compound I-35, {(1S,2S,4R)-4-[(2-{[(1S)-5-chloro-3,3-dimethyl-2,3-dihydro-1H-inden-1-yl]-amino}-pyridin-4-yl)oxy]-2-hydroxycyclopentyl}methyl sulfamate]
> 500 | < 10000 | NS(=O)(=O)OC[C@@H]1C[C@@H](Oc2cc(Cc3ccccc3)ncn2)C[C@@H]1O [Compound I-132, {(1S,2S,4R)-4-[(6-benzylpyrimidin-4-yl)oxy]-2-hydroxycyclopentyl}methyl sulfamate]
> 500 | < 10000 | CN(C)C(=O)[C@H]1Cc2ccccc2[C@H]1Nc1cc(O[C@@H]2C[C@@H](COS(N)(=O)=O)[C@@H](O)C2)ncn1 [Compound I-66, ((1S,2S,4R)-4-{[6-({(1S,2S)-2-[(dimethylamino)carbonyl]-2,3-dihydro-1H-inden-1-yl}amino)pyrimidin-4-yl]oxy}-2-hydroxycyclopentyl)methyl sulfamate]
> 500 | < 10000 | CO[C@@H]1c2ccccc2C[C@@H]1Oc1cc(O[C@@H]2C[C@@H](COS(N)(=O)=O)[C@@H](O)C2)ncn1 [Compound I-79, {(1S,2S,4R)-2-hydroxy-4-[(6-{[(1R,2S)-1-methoxy-2,3-dihydro-1H-inden-2-yl]oxy}-pyrimidin-4-yl)oxy]cyclopentyl}methyl sulfamate]
≤ 500 |  | CO[C@H]1CC(C)(C)c2ccccc2[C@H]1Nc1cc(O[C@@H]2C[C@@H](COS(N)(=O)=O)[C@@H](O)C2)ncn1 [Compound I-150, {(1S,2S,4R)-2-hydroxy-4-[(6-{[(1R,2S)-2-methoxy-4,4-dimethyl-1,2,3,4-tetrahydronaphthalen-1-yl]amino}pyrimidin-4-yl)oxy]cyclopentyl}methyl sulfamate]
> 500 | < 10000 | NS(=O)(=O)OC[C@@H]1C[C@@H](Nc2ncnc3[nH]c(-c4ccccc4-c4ccccc4)nc23)C[C@@H]1O [Compound I-48, {(1S,2S,4R)-4-[(8-biphenyl-2-yl-9H-purin-6-yl)amino]-2-hydroxycyclopentyl}-methyl sulfamate]
≤ 500 |  | NS(=O)(=O)OC[C@@H]1C[C@@H](N2CCc3c(N[C@H]4CCc5ccccc54)ncnc32)C[C@@H]1O [Compound I-146, ((1S,2S,4R)-4-{4-[(1S)-2,3-dihydro-1H-inden-1-ylamino]-5,6-dihydro-7H-pyrrolo[2,3-d]pyrimidin-7-yl}-2-hydroxycyclopentyl)methyl sulfamate]
 | > 10000 | Cc1nc(NCc2ccccc2)cc(N[C@@H]2C[C@H](COS(N)(=O)=O)[C@@H](O)[C@H]2O)n1 [Compound I-30, ((1R,2R,3S,4R)-4-{[6-(benzylamino)-2-methylpyrimidin-4-yl]amino}-2,3-dihydroxycyclopentyl)methyl sulfamate]
> 500 | < 10000 | NS(=O)(=O)OC[C@@H]1C[C@@H](Oc2ccnc(N[C@H]3CCc4ccccc43)c2)C[C@@H]1O [Compound I-94, [(1S,2S,4R)-4-({2-[(1S)-2,3-dihydro-1H-inden-1-ylamino]pyridin-4-yl}oxy)-2-hydroxycyclopentyl]methyl sulfamate]
 | > 10000 | NS(=O)(=O)OC[C@@H]1C[C@@H](Oc2ccncn2)C[C@@H]1O [Compound I-97, [(1S,2S,4R)-2-hydroxy-4-(pyrimidin-4-yloxy)cyclopentyl]methyl sulfamate]
≤ 500 |  | NS(=O)(=O)OC[C@H]1C[C@@H](Nc2cc(N[C@H]3CCc4c(F)ccc(F)c43)ncn2)[C@H](O)[C@@H]1O [Compound I-6, {(1R,2R,3S,4R)-4-[(6-{[(1S)-4,7-difluoro-2,3-dihydro-1H-inden-1-yl]amino}-pyrimidin-4-yl)amino]-2,3-dihydroxycyclopentyl}methyl sulfamate]
> 500 | < 10000 | NS(=O)(=O)OC[C@H]1C[C@@H](Nc2ccnc(NCc3ccccc3)n2)[C@H](O)[C@@H]1O [Compound I-7, ((1R,2R,3S,4R)-4-{[2-(benzylamino)pyrimidin-4-yl]amino}-2,3-dihydroxycyclopentyl)methyl sulfamate]
> 500 | < 10000 | CN(c1ncnc2c1nc(-c1ccccc1)n2C)[C@@H]1C[C@@H](COS(N)(=O)=O)[C@@H](O)C1 [Compound I-123, {(1S,2S,4R)-2-hydroxy-4-[methyl(9-methyl-8-phenyl-9H-purin-6-yl)amino]cyclopentyl}-methyl sulfamate]
≤ 500 |  | NS(=O)(=O)OC[C@@H]1C[C@@H](Oc2ncnc3[nH]c(-c4cccc5ccccc45)nc23)C[C@@H]1O [Compound I-87, ((1S,2S,4R)-2-hydroxy-4-{[8-(1-naphthyl)-9H-purin-6-yl]oxy}cyclopentyl)methyl sulfamate]
≤ 500 |  | NS(=O)(=O)OC[C@H]1C[C@@H](Nc2ncnc3[nH]cnc23)[C@H](O)[C@@H]1O [Compound I-3, [(1R,2R,3S,4R)-2,3-dihydroxy-4-(9H-purin-6-ylamino)cyclopentyl]methyl sulfamate]
≤ 500 |  | COc1cccc(OC)c1-c1nc2c(N[C@@H]3C[C@@H](COS(N)(=O)=O)[C@@H](O)C3)ncnc2[nH]1 [Compound I-93, ((1S,2S,4R)-4-{[8-(2,6-dimethoxyphenyl)-9H-purin-6-yl]amino}-2-hydroxycyclopentyl)methyl sulfamate]
≤ 500 |  | NS(=O)(=O)OC[C@@H]1C[C@@H](Nc2ncnc(N[C@@H]3c4ccccc4CC3(F)F)n2)C[C@@H]1O [Compound I-147, {(1S,2S,4R)-4-[(4-{[(1R)-2,2-difluoro-2,3-dihydro-1H-inden-1-yl]amino}-1,3,5-triazin-2-yl)amino]-2-hydroxycyclopentyl}methyl sulfamate]
> 500 | < 10000 | NS(=O)(=O)OC[C@@H]1C[C@@H](Oc2cc(-c3ccccc3)ncn2)C[C@@H]1O [Compound I-114, {(1S,2S,4R)-2-hydroxy-4-[(6-phenylpyrimidin-4-yl)oxy]cyclopentyl}methyl sulfamate]
 | > 10000 | CN(Cc1ccccc1)c1cc(N[C@@H]2C[C@H](COS(N)(=O)=O)[C@@H](O)[C@H]2O)ncn1 [Compound I-22, [(1R,2R,3S,4R)-4-({6-[benzyl(methyl)amino]pyrimidin-4-yl}amino)-2,3-dihydroxycyclopentyl]methyl sulfamate]
≤ 500 |  | CN(C)c1ccc(-c2nc3c(N[C@@H]4C[C@@H](COS(N)(=O)=O)[C@@H](O)C4)ncnc3[nH]2)c2ccccc12 [Compound I-64, [(1S,2S,4R)-4-({8-[4-(dimethylamino)-1-naphthyl]-9H-purin-6-yl}amino)-2-hydroxycyclopentyl]methyl sulfamate]
≤ 500 |  | Cc1c(N[C@H]2CCc3ccccc32)ncnc1O[C@@H]1C[C@@H](COS(N)(=O)=O)[C@@H](O)C1 [Compound I-32, [(1S,2S,4R)-4-({6-[(1S)-2,3-dihydro-1H-inden-1-ylamino]-5-methylpyrimidin-4-yl}oxy)-2-hydroxycyclopentyl]methyl sulfamate]
